Source: PMC11356900, “Synthesis, Structural Properties and Biological Activities of Novel Hydrazones of 2-, 3-, 4-Iodobenzoic Acid” (Molecules, 2024)
≈ marks a conversion by molar mass, not a printed value.

Assays:
[1] = tested on: A549 cell line; assay: MTT cytotoxicity assay; type: cell-based
Description: (§1) Among all the newly synthesized compounds, four compounds designated as: 14, 20, 21 and 27 were selected for further testing of their cytotoxic properties at the doses of 10, 25, 50, 75 and 100 µM. The cytotoxic properties of the above compounds were tested on the cancer cell lines, i.e., A549 (ECACC 86012804) (non-small-cell lung cancer), T47D (ECACC 85102201) (breast cancer), HeLa (ATCC® CCL-2™) (cervical cancer) and normal line L929 (NCTC clone 929, ATCC® CCL-1™) (mouse fibroblasts) using the MTT test for 24- and 48 h cultures.
(§2) A549 (ECACC 86012804) (non-small-cell lung cancer) and T47D (ECACC 85102201) (breast cancer) were obtained from ECACC and propagated in Dulbecco’s Minimal Essential Medium, supplemented with 2 mM of glutamine, antibiotics ([…] streptomycin, 1% of 100 U/L penicillin) and 10% Fetal Bovine Serum. HeLa (ATCC® CCL-2™) (cervical cancer) and L929 (NCTC clone 929, ATCC® CCL-1™) (mouse fibroblasts) cell lines were obtained from ATCC and propagated in the Eagle Minimal Essential Medium supplemented with antibiotics ([…] streptomycin, 1% of 100 U/L penicillin) and with 10% and 5% FBS, respectively. The cell line was routinely grown in 75 cm^2 tissue culture flasks and kept in an incubator (humidified atmosphere of 5% CO2 at 37 °C). All examined cell lines were tested against mycoplasma contamination with microbiological assays.
(§3) The cell viability of tested compounds (14, 20, 21 and 27) was assessed by the MTT assay. In brief, the exponentially growing cells were plated in 100 μL/well in 96-well plates. After 24 h culturing, the cells were treated with different concentrations of compounds (range 10–100 μM). After 24 and 48 h of incubation, 10 μL of 5 mg/mL MTT was added to each well and the plates were incubated at 37 °C for additional 4 h. The medium was subsequently removed, the purple-colored precipitates of formazan were dissolved in 100 μL of DMSO. The color absorbance was recorded at 570 nm using a BioTek model EPOCH ELISA plate reader. All experiments were performed in triplicate. The absorbance values were in the range of linearity of the Lambert–Beer law.

[2] = tested on: T47D cell line; assay: MTT cytotoxicity assay; type: cell-based
Description: as §1, §2, §3

[3] = tested on: HeLa cell line; assay: MTT cytotoxicity assay; type: cell-based; settings: for cytotoxicity: 24 h culture
Description: as §1, §2, §3

[4] = tested on: Pseudomonas aeruginosa ATCC 9027; assay: Broth microdilution MIC/MBC; settings: ATCC9027

Structure (SMILES): O=C(N/N=C/c1cc(Cl)cc(I)c1O)c1ccc(I)cc1 [Compound 27, N-[(5-chloro-2-hydroxy-3-iodophenyl)methylidene]-4-iodobenzohydrazide]
- cell proliferation ([1]; A549, 24h, 10 µM, Repeat No 1): 95%
- cell proliferation ([1]; A549, 24h, 10 µM, Repeat No 2): 92%
- cell proliferation ([1]; A549, 24h, 25 µM, Repeat No 1): 97%
- cell proliferation ([1]; A549, 24h, 25 µM, Repeat No 2): 89%
- cell proliferation ([1]; A549, 24h, 50 µM, Repeat No 1): 94%
- cell proliferation ([1]; A549, 24h, 50 µM, Repeat No 2): 87%
- cell proliferation ([1]; A549, 24h, 75 µM, Repeat No 1): 87%
- cell proliferation ([1]; A549, 24h, 75 µM, Repeat No 2): 92%
- cell proliferation ([1]; A549, 24h, 100 µM, Repeat No 1): 109%
- cell proliferation ([1]; A549, 24h, 100 µM, Repeat No 2): 103%
- effect on proliferation in words ([1]; A549, 24 h culture, dose of 100 µM): increase in the proliferation of cancer cells
- cell proliferation ([1]; A549, 48h, 10 µM, Repeat No 1): 84%
- cell proliferation ([1]; A549, 48h, 10 µM, Repeat No 2): 87%
- cell proliferation ([1]; A549, 48h, 25 µM, Repeat No 1): 87%
- cell proliferation ([1]; A549, 48h, 25 µM, Repeat No 2): 82%
- cell proliferation ([1]; A549, 48h, 50 µM, Repeat No 1): 88%
- cell proliferation ([1]; A549, 48h, 50 µM, Repeat No 2): 89%
- cell proliferation ([1]; A549, 48h, 75 µM, Repeat No 1): 91%
- cell proliferation ([1]; A549, 48h, 75 µM, Repeat No 2): 87%
- cell proliferation ([1]; A549, 48h, 100 µM, Repeat No 1): 98%
- cell proliferation ([1]; A549, 48h, 100 µM, Repeat No 2): 95%
- cell proliferation ([2]; 24h, 10 µM, Repeat No 1): 96%
- cell proliferation ([2]; 24h, 10 µM, Repeat No 2): 91%
- cell proliferation ([2]; 24h, 25 µM, Repeat No 1): 91%
- cell proliferation ([2]; 24h, 25 µM, Repeat No 2): 82%
- cell proliferation ([2]; 24h, 50 µM, Repeat No 1): 83%
- cell proliferation ([2]; 24h, 50 µM, Repeat No 2): 79%
- cell proliferation ([2]; 24h, 75 µM, Repeat No 1): 84%
- cell proliferation ([2]; 24h, 75 µM, Repeat No 2): 87%
- cell proliferation ([2]; 24h, 100 µM, Repeat No 1): 86%
- cell proliferation ([2]; 24h, 100 µM, Repeat No 2): 91%
- cell proliferation ([2]; 48h, 10 µM, Repeat No 1): 82%
- cell proliferation ([2]; 48h, 10 µM, Repeat No 2): 75%
- cell proliferation ([2]; 48h, 25 µM, Repeat No 1): 88%
- cell proliferation ([2]; 48h, 25 µM, Repeat No 2): 84%
- cell proliferation ([2]; 48h, 50 µM, Repeat No 1): 81%
- cell proliferation ([2]; 48h, 50 µM, Repeat No 2): 80%
- cell proliferation ([2]; 48h, 75 µM, Repeat No 1): 79%
- cell proliferation ([2]; 48h, 75 µM, Repeat No 2): 72%
- cell proliferation ([2]; 48h, 100 µM, Repeat No 1): 83%
- cell proliferation ([2]; 48h, 100 µM, Repeat No 2): 81%
- cell proliferation ([3]; 24h, 10 µM, Repeat No 1): 74%
- cell proliferation ([3]; 24h, 10 µM, Repeat No 2): 83%
- cell proliferation ([3]; 24h, 25 µM, Repeat No 1): 69%
- cell proliferation ([3]; 24h, 25 µM, Repeat No 2): 73%
- cell proliferation ([3]; 24h, 50 µM, Repeat No 1): 61%
- cell proliferation ([3]; 24h, 50 µM, Repeat No 2): 67%
- cell proliferation ([3]; 24h, 75 µM, Repeat No 1): 72%
- cell proliferation ([3]; 24h, 75 µM, Repeat No 2): 69%
- cell proliferation ([3]; 24h, 100 µM, Repeat No 1): 63%
- cell proliferation ([3]; 24h, 100 µM, Repeat No 2): 59%
- cytotoxicity ([3]; dose of 50 µM): 37%
- cytotoxicity ([3]; dose of 100 µM): 41%
- cell proliferation ([3]; 48h, 10 µM, Repeat No 1): 77%
- cell proliferation ([3]; 48h, 10 µM, Repeat No 2): 82%
- cell proliferation ([3]; 48h, 25 µM, Repeat No 1): 82%
- cell proliferation ([3]; 48h, 25 µM, Repeat No 2): 71%
- cell proliferation ([3]; 48h, 50 µM, Repeat No 1): 61%
- cell proliferation ([3]; 48h, 50 µM, Repeat No 2): 49%
- cell proliferation ([3]; 48h, 75 µM, Repeat No 1): 51%
- cell proliferation ([3]; 48h, 75 µM, Repeat No 2): 43%
- cell proliferation ([3]; 48h, 100 µM, Repeat No 1): 63%
- cell proliferation ([3]; 48h, 100 µM, Repeat No 2): 57%
- MBC [4]: > 1000 µg/mL
- MBC/MIC [4]: > 1
- MIC [4]: 1000 µg/mL (≈ 1900 µM)

Structure (SMILES): O=C(N/N=C/c1cc(Cl)cc(I)c1O)c1cccc(I)c1 [Compound 20, N-[(5-chloro-2-hydroxy-3-iodophenyl)methylidene]-3-iodobenzohydrazide]
- cell proliferation ([1]; A549, 24h, 10 µM, Repeat No 1): 87%
- cell proliferation ([1]; A549, 24h, 10 µM, Repeat No 2): 92%
- cell proliferation ([1]; A549, 24h, 25 µM, Repeat No 1): 83%
- cell proliferation ([1]; A549, 24h, 25 µM, Repeat No 2): 91%
- cell proliferation ([1]; A549, 24h, 50 µM, Repeat No 1): 83%
- cell proliferation ([1]; A549, 24h, 50 µM, Repeat No 2): 87%
- cell proliferation ([1]; A549, 24h, 75 µM, Repeat No 1): 91%
- cell proliferation ([1]; A549, 24h, 75 µM, Repeat No 2): 95%
- cell proliferation ([1]; A549, 24h, 100 µM, Repeat No 1): 90%
- cell proliferation ([1]; A549, 24h, 100 µM, Repeat No 2): 93%
- cell proliferation ([1]; A549, 48h, 10 µM, Repeat No 1): 88%
- cell proliferation ([1]; A549, 48h, 10 µM, Repeat No 2): 84%
- cell proliferation ([1]; A549, 48h, 25 µM, Repeat No 1): 79%
- cell proliferation ([1]; A549, 48h, 25 µM, Repeat No 2): 83%
- cell proliferation ([1]; A549, 48h, 50 µM, Repeat No 1): 88%
- cell proliferation ([1]; A549, 48h, 50 µM, Repeat No 2): 92%
- cell proliferation ([1]; A549, 48h, 75 µM, Repeat No 1): 99%
- cell proliferation ([1]; A549, 48h, 75 µM, Repeat No 2): 95%
- cell proliferation ([1]; A549, 48h, 100 µM, Repeat No 1): 91%
- cell proliferation ([1]; A549, 48h, 100 µM, Repeat No 2): 93%
- cell proliferation ([2]; 24h, 10 µM, Repeat No 1): 78%
- cell proliferation ([2]; 24h, 10 µM, Repeat No 2): 81%
- cell proliferation ([2]; 24h, 25 µM, Repeat No 1): 76%
- cell proliferation ([2]; 24h, 25 µM, Repeat No 2): 72%
- cell proliferation ([2]; 24h, 50 µM, Repeat No 1): 77%
- cell proliferation ([2]; 24h, 50 µM, Repeat No 2): 69%
- cell proliferation ([2]; 24h, 75 µM, Repeat No 1): 77%
- cell proliferation ([2]; 24h, 75 µM, Repeat No 2): 73%
- cell proliferation ([2]; 24h, 100 µM, Repeat No 1): 87%
- cell proliferation ([2]; 24h, 100 µM, Repeat No 2): 82%
- cell proliferation ([2]; 48h, 10 µM, Repeat No 1): 80%
- cell proliferation ([2]; 48h, 10 µM, Repeat No 2): 78%
- cell proliferation ([2]; 48h, 25 µM, Repeat No 1): 79%
- cell proliferation ([2]; 48h, 25 µM, Repeat No 2): 75%
- cell proliferation ([2]; 48h, 50 µM, Repeat No 1): 76%
- cell proliferation ([2]; 48h, 50 µM, Repeat No 2): 73%
- cell proliferation ([2]; 48h, 75 µM, Repeat No 1): 83%
- cell proliferation ([2]; 48h, 75 µM, Repeat No 2): 86%
- cell proliferation ([2]; 48h, 100 µM, Repeat No 1): 81%
- cell proliferation ([2]; 48h, 100 µM, Repeat No 2): 79%
- cell proliferation ([3]; 24h, 10 µM, Repeat No 1): 87%
- cell proliferation ([3]; 24h, 10 µM, Repeat No 2): 92%
- cell proliferation ([3]; 24h, 25 µM, Repeat No 1): 81%
- cell proliferation ([3]; 24h, 25 µM, Repeat No 2): 88%
- cell proliferation ([3]; 24h, 50 µM, Repeat No 1): 78%
- cell proliferation ([3]; 24h, 50 µM, Repeat No 2): 83%
- cell proliferation ([3]; 24h, 75 µM, Repeat No 1): 85%
- cell proliferation ([3]; 24h, 75 µM, Repeat No 2): 91%
- cell proliferation ([3]; 24h, 100 µM, Repeat No 1): 81%
- cell proliferation ([3]; 24h, 100 µM, Repeat No 2): 79%
- cell proliferation ([3]; 48h, 10 µM, Repeat No 1): 88%
- cell proliferation ([3]; 48h, 10 µM, Repeat No 2): 91%
- cell proliferation ([3]; 48h, 25 µM, Repeat No 1): 73%
- cell proliferation ([3]; 48h, 25 µM, Repeat No 2): 75%
- cell proliferation ([3]; 48h, 50 µM, Repeat No 1): 87%
- cell proliferation ([3]; 48h, 50 µM, Repeat No 2): 91%
- cell proliferation ([3]; 48h, 75 µM, Repeat No 1): 99%
- cell proliferation ([3]; 48h, 75 µM, Repeat No 2): 96%
- cell proliferation ([3]; 48h, 100 µM, Repeat No 1): 93%
- cell proliferation ([3]; 48h, 100 µM, Repeat No 2): 94%
- MBC [4]: > 1000 µg/mL
- MBC/MIC [4]: > 2
- MIC [4]: 500 µg/mL (≈ 950 µM)
